# Laboratory results as given in PMC11769294, “(E)-1-(3-(3-Hydroxy-4-Methoxyphenyl)-1-(3,4,5-Trimethoxyphenyl)allyl)-1H-1,2,4-Triazole and Related Compounds: Their Synthesis and Biological Evaluation as Novel Antimitotic Agents Targeting Breast Cancer” (Pharmaceuticals, 2025).
# Experiments:
# [1] = test system: MDA-MB-231 breast cancer cells; experiment: alamarBlue cell viability assay; assay type: cell-based; conditions: Homo sapiens
# Method: HL-60 cells were suspension cells and the seeding density for the viability assay was 25,000 cells/mL. MCF-7 cells (adherent) were cultured in Minimum Essential Media (MEM) with GlutaMAX™-I, supplemented with 1% (v/v) non-essential amino acids, 10% (v/v) fetal bovine serum (FBS), purchased from BD Biosciences (Edmund Halley Road, Oxford, UK), and 1% (v/v) penicillin/streptomycin 5000 U/mL. The MCF-7 cells used in the screening of the compounds during these experiments were mycoplasma-free. The seeding density of MCF-7 in the viability assay was 25,000 cells/mL and 50,000 cells/mL in the FACS assay. […]
# The biochemical assays were performed in triplicate and on at least three independent occasions to facilitate the determination of mean values. […] Adherent cells such as MCF-7, MDA-MB-231, and MCF-10A were trypsinized to detach them from the flask, counted as previously described, and seeded in 96 well plates with a seeding density of 25,000 cells /mL (200 µL of suspension in each well so that the final number of cells per well was 5000) and 1 × 10^4 cells/well seeding density for suspension HL-60 cells. […] After 72 h, the change in color was measured by spectrofluorimetry at an excitation wavelength of 544 nm and emission wavelength of 590 nm. […]
# [2] = test system: MCF-7 breast cancer cells; experiment: Annexin V/PI apoptotic assay; assay type: cell-based, human
# Method: (§1) Apoptotic cell death was monitored by flow cytometry using Annexin V and propidium iodide (PI) to determine the Annexin V and PI negative cells (Q4, healthy cells), Annexin V positive and PI negative cells (Q3, early apoptosis), Annexin V and PI positive cells (Q2, late apoptosis), and Annexin V negative and PI-positive cells (Q1, necrosis) cells. MCF-7 and MDA-MB-231 cells for this experiment were seeded in 6-well plates at a density of 1 × 10^5 cells/mL (3 mL). Following the protocol previously described, the cells were treated at 37 °C with either vehicle (0.1% (v/v) EtOH), phenstatin 19c, (0.1 μM and 0.5 μM), or 22b (0.1 μM, 0.5 μM and 1 μM) at the 48 h time point. Cells were harvested by centrifugation at 400× g using a temperature-controlled Sorvall centrifuge and then prepared for flow cytometric analysis. Cells were washed in Annexin V Binding Buffer 1X (binding buffer: 0.1 M 4-(2-hydroxyethyl)-1-piperazineethanesulfonic acid (HEPES), pH 7.4; 1.4 M NaCl; 25 mM CaCl2 diluted in dH2O, 0.5 mL), and incubated in the dark for 30 min on ice in Annexin V-containing binding buffer (1:100), 50 μL protected from light. Cells were then washed once in binding buffer and then re-suspended in a PI-containing binding buffer (1:1,000) (0.5 μg/mL, 500 μL) and immediately analyzed within 1 h to determine the populations produced. BD Accuri flow cytometer (BD Biosciences, 2350 Qume Dr, San Jose, CA, USA) and GraphPad Prism software were used for the analysis of the data (GraphPad Software, Inc., 2365 Northside Dr., Suite 560, San Diego, CA, USA).
# (§2) Figure 11 Compound 22b induced apoptosis in (A) MCF-7 breast cancer cells and (B) MDA-MB-231 breast cancer cells. MCF-7 breast cancer cells (A) and MDA-MB-23 breast cancer cells (B) were treated with 22b (0.1, 0.5, and 1.0 μM) or phenstatin (19c) (0.1 μM and 0.5 μM) or control vehicle (0.1% ethanol (v/v)). The data shown for the control vehicle and phenstatin are as we previously reported. The apoptotic cell content was determined by staining with Annexin V-FITC and PI. […]
# [3] = test system: MDA-MB-231 breast cancer cells; experiment: Annexin V/PI apoptotic assay; assay type: cell-based, human
# Method: as §1, §2
structure (smiles),measurement,setting,value
"COc1ccc(/C=C/C(c2cc(OC)c(OC)c(OC)c2)n2cncn2)cc1O (stereo not shown) [Compound 22b, (E)-5-(3-(1H-1,2,4-Triazol-1-yl)-3-(3,4,5-trimethoxyphenyl)prop-1-en-1-yl)-2-methoxyphenol]",IC50,[1],770 nM
same,IC50,[1]; 72 h,765 ± 30 nM
same,cells undergoing apoptosis (early + late),[2]; 0.5 μM,21%
same,cells undergoing apoptosis (early + late),[2]; 1 μM,33%
same,viability at 0.1 µM,"[2]; Homo sapiens, MCF7, 0.1 μM, Figure 11A",82.8%
same,viability at 0.5 µM,"[2]; Homo sapiens, MCF7, 0.5 μM, Figure 11A",78.1%
same,viability at 1 µM,"[2]; Homo sapiens, MCF7, 1 μM, Figure 11A",60.6%
same,cells in apoptosis,[3]; 0.1 μM,5.9%
same,cells in apoptosis,[3]; 0.5 μM,6.5%
same,cells in apoptosis,[3]; 1.0 μM,20.8%
same,viability at 0.1 µM,"[3]; Homo sapiens, 0.1 μM, Figure 11B",92.8%
same,viability at 0.5 µM,"[3]; Homo sapiens, 0.5 μM, Figure 11B",92.1%
same,viability at 1 µM,"[3]; Homo sapiens, 1 μM, Figure 11B",77.6%
